Data on one compound can be found in patent US20240269150A1, “WOUND TREATMENT COMPOSITION” (CS MEDICA A/S, priority 2021, published 2024).

A short description of the test: Comparison of compositions formulated with different crystalline CBDs. The settings on record: compositions per Example 1 (formulation A or B) differing only in the crystalline CBD used. Type of test: in vivo. From the text:
In some embodiments, CBD of crystal structure A (or capable of forming needle-like crystals) is at least 1.2, 1.5, 2, 3, 4, 5, 7.5, 10, 15 or 20 times more “potent” on a weight/weight basis than CBD of crystal structure B (or capable of forming cluster/bunch-like crystals). Often, the “A-type” CBD is at least 2.5, 5, 7.5, or 10 times more “potent” on a weight/weight basis than “B-type” CBD. The “potency” of “type A” CBD can e.g. be determined in measuring the time needed for wound and/or soar healing using essentially identical compositions with the exception of the type of CBD used. Alternatively, the potency can be determined in the quantity of CBD needed to provide the same effect, such as wound and/or sore healing time.
Two compositions are prepared according to Example 1, e.g. formulation A or B, the only difference being that the crystalline CBD used in the formulation is either of type A (needle-like crystals; FIG. 1) or type B (bunch/cluster-like; FIG. 2).
Type A crystalline CBD is sourced from Enecta, while type B CBD is sourced from Pharma Hemp.

Molecules are shown by their SMILES.

Regarding `C=C(C)[C@@H]1CCC(C)=C[C@H]1c1c(O)cc(CCCCC)cc1O` [type A CBD, cannabidiol], the “Activity / potency of type A CBD relative to type B CBD” value was “significantly more active than type B CBD”. Further, for the setting “listed as CBD with a needle-like crystal structure”, the “Activity / potency of type A CBD relative to type B CBD” value is “significantly more potent”.
